Results as given in patent US9090658B2, “Base-substituted benzylamine analogs for use as coagulation factor Xa inhibitors, the production and use thereof” (The Medicines Company (Leipzig) GmbH, priority 2003, dated 2015).
Structures can show the parent of a compound that is named as a salt.

Assays:
factor Xa = target: T1, factor Xa (Bos taurus, UniProt P00743); assay: Determination of the inhibitory constants for factor Xa (chromogenic substrate Moc-D-Nle-Gly-Arg-pNA, Dixon method); format: biochemical, bovine; settings: for Ki: bovine factor Xa, 25° C., pH 8.0, average of at least three determinations
T1 construct: purchased Diagnostic Reagents Ltd, Thame, GB
T1 sequence (P00743 234-492 limits assumed): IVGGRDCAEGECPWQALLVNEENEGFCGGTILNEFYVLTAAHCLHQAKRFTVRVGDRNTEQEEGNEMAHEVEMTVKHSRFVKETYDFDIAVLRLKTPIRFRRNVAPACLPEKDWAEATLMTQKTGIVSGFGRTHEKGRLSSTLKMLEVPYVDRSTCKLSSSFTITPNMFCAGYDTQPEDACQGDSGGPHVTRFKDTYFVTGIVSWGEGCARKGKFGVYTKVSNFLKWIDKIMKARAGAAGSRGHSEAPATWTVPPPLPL
T1 sequence (P00743 41-180 partner limits assumed): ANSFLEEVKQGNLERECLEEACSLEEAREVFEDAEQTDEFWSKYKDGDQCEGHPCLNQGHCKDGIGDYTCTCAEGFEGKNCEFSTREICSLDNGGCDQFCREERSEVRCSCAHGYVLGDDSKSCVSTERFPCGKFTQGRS
Description: Determination of the inhibitory Effect
To determine the inhibitory effect, 200 μl of this buffer (0.05 M 0.154 M NaCl, 5% Ethanol, pH 8.0; contains the inhibitor), 25 μl of substrate (Moc-D-Nle-Gly-Arg-pNA in H2O; Pentapharm Ltd., Basle, Switzerland) and 50 μl of factor Xa (bovine, Diagnostic Reagents Ltd, thame, GB) were incubated at 25° C. After 3 min, the reaction was stopped By adding 25 μl of acetic acid (50%), and the absorption at 405 nm was determined using a Microplate Reader (MR 5000, Dynatech, Denkendorf, Germany). The Ki values were Founder by the Dixon method (boichem. J. 55, 170-171, 1953) by linear regression using a Computer program. The Ki values are the average of at least three determinations. The Thrombin inhibitions was determined in analogy to a method described earlier (Stürzebecher et al., J. Med. Chem. 40, 3091-3099, 1997).

Thrombin = Thrombin (UniProt P00735); assay: Determination of the inhibitory constants for thrombin (method of Stürzebecher et al. 1997); format: biochemical
From the text: The Ki values are the average of at least three determinations.

F Xa = settings: prior art, literature values; cited from earlier work

selectivity ratio SR (SR = Ki thrombin/Ki factor Xa) (factor Xa) | Ki (factor Xa) [nM] | Ki (Thrombin) [nM] | SMILES | Ki (F Xa) [nM]
690 | 2.9 | 2000 | N=C(N)c1ccc(CNC(=O)CNC(=O)C(CCc2ccncc2)NS(=O)(=O)Cc2ccccc2)cc1 (racemic) [Compound 1, Bzls-D,L-homoAla(4-Pyr)-Gly-4Amba×2 TFA] | –
49 | 110 | 5400 | N=C(N)c1ccc(CNC(=O)CNC(=O)[C@@H](CCc2ccccc2)NS(=O)(=O)NC2CCCCC2)cc1.O=C(O)C(F)(F)F [Compound 18] | –
150 | 9.3 | 1400 | N=C(N)c1ccc(CNC(=O)CNC(=O)[C@@H](CCc2ccccc2)NS(=O)(=O)Cc2cccc(N)c2)cc1 [Compound 45] | –
730 | 4.8 | 3500 | N=C(N)c1ccc(CNC(=O)CNC(=O)C(CCc2cc[n+]([O-])cc2)NS(=O)(=O)Cc2ccccc2)cc1 (stereo not shown) [Compound 60] | –
100 | 2.6 | 260 | N=C(N)c1ccc(CNC(=O)CNC(=O)[C@@H](CCc2ccccc2)NS(=O)(=O)Cc2ccc(N)cc2)cc1 [Compound 29] | –
250 | 6.8 | 1700 | N=C(N)c1ccc(CNC(=O)[C@H](CCC(=O)NCc2ccccc2)NC(=O)[C@@H](CCc2ccncc2)NS(=O)(=O)Cc2ccccc2)cc1 [Compound 61] | –
2000 | 7.5 | 15000 | N=C(N)c1ccc(CNC(=O)[C@H](CCC(=O)O)NC(=O)[C@@H](CCc2ccc(O)cc2)NS(=O)(=O)Cc2ccc([N+](=O)[O-])cc2)cc1 [Compound 43] | –
3.5 | 130 | 460 | CC(C)(C)OC(=O)CCC[C@H](NC(=O)[C@@H](CCc1ccccc1)NS(=O)(=O)Cc1ccccc1)C(=O)NCc1ccc(C(=N)N)cc1 [Compound 57] | –
170 | 6.5 | 1100 | N=C(N)c1ccc(CNC(=O)CNC(=O)[C@@H](/C=C/c2ccccc2)NS(=O)(=O)Cc2ccccc2)cc1 [Compound 40] | –
22940 | 3.4 | 78000 | N=C(N)c1ccc(CNC(=O)[C@H](CCC(=O)O)NC(=O)[C@@H](CCc2ccc(O)cc2)NS(=O)(=O)Cc2ccc(N)cc2)cc1 [Compound 30] | –
47 | 38 | 1800 | COC(=O)Cc1ccc(CS(=O)(=O)N[C@H](CCc2ccccc2)C(=O)NCC(=O)NCc2ccc(C(=N)N)cc2)cc1 [Compound 16] | –
2.6 | 26 | 68 | N=C(N)c1ccc(CNC(=O)CNC(=O)[C@@H](Cc2ccccc2)NS(=O)(=O)Cc2ccccc2)cc1 [Compound 10] | –
200 | 5 | 1000 | CCOC(=O)CC[C@H](NC(=O)[C@@H](CCc1ccc(O)cc1)NS(=O)(=O)Cc1ccccc1)C(=O)NCc1ccc(C(=N)N)cc1 [Compound 35] | –
2923 | 13 | 38000 | N=C(N)c1ccc(CNC(=O)CNC(=O)C(CCc2ccncc2)NS(=O)(=O)Cc2ccc(CC(=O)O)cc2)cc1 (stereo not shown) [Compound 49] | –
5135 | 3.7 | 19000 | N=C(N)c1ccc(CNC(=O)[C@H](CCC(=O)O)NC(=O)[C@@H](CCc2ccc(O)cc2)NS(=O)(=O)Cc2ccccc2)cc1 [Compound 34] | –
775 | 9.8 | 7600 | COC(=O)c1ccc(CS(=O)(=O)NC(CCc2ccncc2)C(=O)NCC(=O)NCc2ccc(C(=N)N)cc2)cc1 (stereo not shown) [Compound 46] | –
3.1 | 580 | 1800 | N=C(N)c1ccc(CNC(=O)CNC(=O)[C@@H](C/C=C/c2ccccc2)NS(=O)(=O)Cc2ccccc2)cc1 [Compound 58] | –

selectivity ratio SR (SR = Ki thrombin/Ki factor Xa) (factor Xa) | Ki (factor Xa) [nM] | Ki (Thrombin) [nM] | SMILES | Ki (F Xa) [nM]
5.2 | 29 | 150 | N=C(N)c1ccc(CNC(=O)CNC(=O)[C@H](NS(=O)(=O)Cc2ccccc2)C2Cc3ccccc3C2)cc1 [Compound 21] | –
833 | 120 | 100000 | Nc1ccc(CNC(=O)CNC(=O)C(CCc2ccncc2)NS(=O)(=O)Cc2ccccc2)cn1 (stereo not shown) [Compound 65] | –
295 | 1.9 | 560 | N=C(N)c1ccc(CNC(=O)CNC(=O)[C@@H](CCc2ccc(O)cc2)NS(=O)(=O)Cc2ccc(N)cc2)cc1 [Compound 27] | –
259 | 54 | 14000 | N=C(N)c1ccc(CNC(=O)CNC(=O)[C@@H](CCc2ccccc2)NS(=O)(=O)Cc2ccc(CC(=O)O)cc2)cc1 [Compound 17] | –
45 | 80 | 3600 | N=C(N)c1ccc(CNC(=O)CNC(=O)[C@@H](CCc2ccccc2)NS(=O)(=O)Cc2ccncc2)cc1 [Compound 14] | –
27 | 30 | 800 | N=C(N)c1ccc(CNC(=O)[C@H](CCCC(=O)O)NC(=O)[C@@H](CCc2ccccc2)NS(=O)(=O)Cc2ccccc2)cc1 [Compound 53] | –
30 | 6 | 180 | N=C(N)c1ccc(CNC(=O)[C@H](CCCc2ccccc2)NC(=O)C(CCc2ccncc2)NS(=O)(=O)Cc2ccccc2)cc1 (stereo partly shown) [Compound 38] | –
137 | 6.7 | 920 | N=C(N)c1ccc(CNC(=O)CNC(=O)[C@@H](CCc2ccccc2)NS(=O)(=O)Cc2ccccc2N)cc1 [Compound 19] | –
46 | 26 | 1200 | N=C(N)c1ccc(CNC(=O)CNC(=O)[C@@H](CCc2ccccc2)NS(=O)(=O)Cc2ccccc2[N+](=O)[O-])cc1 [Compound 20] | –
3 | 67 | 210 | N=C(N)c1ccc(CNC(=O)CNC(=O)[C@@H](CCCc2ccccc2)NS(=O)(=O)Cc2ccccc2)cc1 [Compound 55] | –
15 | 40 | 600 | N=C(N)c1ccc(CNC(=O)[C@H](CO)NC(=O)[C@@H](CCc2ccccc2)NS(=O)(=O)Cc2ccccc2)cc1 [Compound 15] | –
288 | 7.2 | 1500 | N=C(N)c1ccc(CNC(=O)CNC(=O)[C@@H](CCc2ccccc2)NS(=O)(=O)Cc2cccc(O)c2)cc1 [Compound 42] | –
463 | 8.2 | 3800 | COC(=O)Cc1ccc(CS(=O)(=O)NC(CCc2ccncc2)C(=O)NCC(=O)NCc2ccc(C(=N)N)cc2)cc1 (stereo not shown) [Compound 44] | –
65 | 97 | 6300 | N=C(N)c1ccc(CNC(=O)[C@H](CO)NC(=O)C(CCc2ccncc2)NS(=O)(=O)Cc2ccncc2)cc1 (stereo partly drawn) [Compound 4, 4-PMs-D,L-homoAla(4-Pyr)-Ser-4Amba×3 acetate] | –
543 | 3.5 | 1900 | N=C(N)c1ccc(CNC(=O)CNC(=O)C(CCc2ccncc2)NS(=O)(=O)Cc2ccc([N+](=O)[O-])cc2)cc1 (stereo not shown) [Compound 31] | –
– | – | – | N=C(N)c1ccc(C=C2CCCCC(=Cc3ccc(C(=N)N)cc3)C2=O)cc1 [BABCH] | 13
6250 | 5.6 | 35000 | N=C(N)c1ccc(CNC(=O)[C@H](CCC(=O)O)NC(=O)C(CCc2ccncc2)NS(=O)(=O)Cc2ccc([N+](=O)[O-])cc2)cc1 (stereo partly shown) [Compound 37] | –
